Here are results for six compounds from US4052514A, “Trihalosubstituted biphenylyl propionic acids” (The Boots Company Limited, priority 1971, dated 1977).

The test deals with adjuvant arthritis. In words: rat adjuvant arthritis test (chronic; killed human tubercle bacilli, compounds given daily by mouth for 21 days). The settings on record: for ADJUVANT ARTHRITIS (activity; 2-(2-fluoro-4-biphenylyl)propionic acid used as standard of reference): daily by mouth for 21 days, reference 2-(2-fluoro-4-biphenylyl)propionic acid = 1. In kind it is in vivo. As for the experimental part: The best method of indicating long acting anti-inflammatory activity of the compounds is by means of a test in which compounds are administered chronically e.g. the rat adjuvant arthritis test. […] The adjuvant arthritis test conducted on the rat is, however a chronic test and is believed to give a good indication of the effectiveness of the compounds for the treatment of chronic conditions in humans. The adjuvant arthritis test is described by Newbould, B. B., in Br. J. Pharmac. Chemother., 1963, 21, 127. In the test arthritis is produced by injecting intradermally into the tail 0.1 ml. of a suspension of killed human tubercle bacilli (6 mg./ml.) in liquid paraffin BP. A polyarthritis develops over the next 3 weeks in untreated controls. The compounds under test (vehicle only for control animals) are given daily by mouth from the day the adjuvant is injected for 21 days. On day 21 the degree of arthritis is assessed on each hind foot. The degree of inhibition produced by a compound is estimated by comparison of the total arthritic scores with those found in the controls.
In the following Table are given the results in the adjuvant arthritis test for the four preferred compounds of the invention and 2-(2-fluoro-4-biphenylyl)propionic acid, the latter compound being used as a standard of reference in the adjuvant arthritis test.
As with the propionic acids of the invention the half-life of the compounds of the invention in the blood of the subject to which they are administered is a good indication of their duration of activity. The half-life may ve measured by giving oral doses of the compounds and determining levels in the plasma at various times thereafer, as previously described. As with the propionic acids of the invention one of the best methods of indicating long acting anti-inflammatory activity of the compounds is by means of a test in which compounds are administered chronically e.g. the rat adjuvant arthritis test.

With `O=C(O)Cc1ccc(-c2ccc(F)cc2F)c(F)c1` [2,2', 4'-trifluoro-4-biphenylacetic acid, 2,2',4'-trifluoro-4-biphenylylacetic acid], the “times as active as 2-fluoro-4-biphenylylacetic acid in adjuvant arthritis test” value (standard of reference 2-fluoro-4-biphenylylacetic acid) is recorded as “more than 30 times”.

On to `CC(C(=O)O)c1ccc(-c2ccc(F)cc2Cl)c(F)c1` (stereo not drawn) [2-(2'-chloro-2,4'-difluoro-4-biphenylyl)propionic acid], for which the “ADJUVANT ARTHRITIS (activity; 2-(2-fluoro-4-biphenylyl)propionic acid used as standard of reference)” value is given as more than 3.

For `CC(C(=O)O)c1ccc(-c2ccc(F)cc2F)c(F)c1` (stereo not drawn) [2-(2,2',4'-trifluoro-4-biphenylyl)propionic acid], the “ADJUVANT ARTHRITIS (activity; 2-(2-fluoro-4-biphenylyl)propionic acid used as standard of reference)” value was more than 10.

With `CC(C(=O)O)c1ccc(-c2ccc(F)cc2F)c(Cl)c1` (stereo not drawn) [2-(2-chloro-2',4'-difluoro-4-biphenylyl)propionic acid], the “ADJUVANT ARTHRITIS (activity; 2-(2-fluoro-4-biphenylyl)propionic acid used as standard of reference)” value is more than 10.

With `CC(C(=O)O)c1ccc(-c2ccccc2)c(F)c1` (stereo not drawn) [2-(2-fluoro-4-biphenylyl)propionic acid, reference compound], the “ADJUVANT ARTHRITIS (activity; 2-(2-fluoro-4-biphenylyl)propionic acid used as standard of reference)” value stood at 1.

As to `CC(C(=O)O)c1ccc(-c2ccc(Cl)cc2F)c(F)c1` (stereo not drawn) [2-(4'-chloro-2,2'-difluoro-4-biphenylyl)propionic acid], the “ADJUVANT ARTHRITIS (activity; 2-(2-fluoro-4-biphenylyl)propionic acid used as standard of reference)” value is on record as more than 3.
